{
  "source": "ChEMBL document CHEMBL4028808",
  "about": "“Design and synthesis of selective CDK8/19 dual inhibitors: Discovery of 4,5-dihydrothieno[3',4':3,4]benzo[1,2-d]isothiazole derivatives” (Bioorg Med Chem, 2017)",
  "key": {"[1]": {"system": "Calu-1", "test": "Growth inhibition of human Calu1 cells after 196 hrs by CellTiter-Glo luminescence assay", "format": "functional", "settings": "Calu-1, 196 h"}, "[2]": {"target": "MAP kinase-activated protein kinase 2 (Homo sapiens) (UniProt P49137)", "sequence (P49137 whole entry, looked up)": "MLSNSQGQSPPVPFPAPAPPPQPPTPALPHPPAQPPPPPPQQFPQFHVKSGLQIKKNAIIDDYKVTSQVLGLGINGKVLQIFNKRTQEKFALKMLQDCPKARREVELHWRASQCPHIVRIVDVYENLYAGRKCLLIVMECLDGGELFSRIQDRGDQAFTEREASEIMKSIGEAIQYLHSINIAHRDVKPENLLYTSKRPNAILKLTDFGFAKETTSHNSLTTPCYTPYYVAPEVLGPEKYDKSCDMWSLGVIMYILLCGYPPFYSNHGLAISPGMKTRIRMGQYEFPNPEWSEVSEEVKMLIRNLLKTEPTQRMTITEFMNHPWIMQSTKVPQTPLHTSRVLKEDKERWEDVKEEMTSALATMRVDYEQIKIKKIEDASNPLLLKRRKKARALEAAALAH", "test": "Inhibition of MAPKAPK2 (unknown origin) at <1 uM using KKLNRTLSVA-NH2 as substrate preincubated for 5 mins followed by substrate addition measured after 10 mins in presence of [gamma33P]ATP by scintillation counter method"}, "[3]": {"target": "Mitogen-activated protein kinase kinase kinase 19 (Homo sapiens) (UniProt Q56UN5)", "sequence (Q56UN5 whole entry, the tested form may be a part)": "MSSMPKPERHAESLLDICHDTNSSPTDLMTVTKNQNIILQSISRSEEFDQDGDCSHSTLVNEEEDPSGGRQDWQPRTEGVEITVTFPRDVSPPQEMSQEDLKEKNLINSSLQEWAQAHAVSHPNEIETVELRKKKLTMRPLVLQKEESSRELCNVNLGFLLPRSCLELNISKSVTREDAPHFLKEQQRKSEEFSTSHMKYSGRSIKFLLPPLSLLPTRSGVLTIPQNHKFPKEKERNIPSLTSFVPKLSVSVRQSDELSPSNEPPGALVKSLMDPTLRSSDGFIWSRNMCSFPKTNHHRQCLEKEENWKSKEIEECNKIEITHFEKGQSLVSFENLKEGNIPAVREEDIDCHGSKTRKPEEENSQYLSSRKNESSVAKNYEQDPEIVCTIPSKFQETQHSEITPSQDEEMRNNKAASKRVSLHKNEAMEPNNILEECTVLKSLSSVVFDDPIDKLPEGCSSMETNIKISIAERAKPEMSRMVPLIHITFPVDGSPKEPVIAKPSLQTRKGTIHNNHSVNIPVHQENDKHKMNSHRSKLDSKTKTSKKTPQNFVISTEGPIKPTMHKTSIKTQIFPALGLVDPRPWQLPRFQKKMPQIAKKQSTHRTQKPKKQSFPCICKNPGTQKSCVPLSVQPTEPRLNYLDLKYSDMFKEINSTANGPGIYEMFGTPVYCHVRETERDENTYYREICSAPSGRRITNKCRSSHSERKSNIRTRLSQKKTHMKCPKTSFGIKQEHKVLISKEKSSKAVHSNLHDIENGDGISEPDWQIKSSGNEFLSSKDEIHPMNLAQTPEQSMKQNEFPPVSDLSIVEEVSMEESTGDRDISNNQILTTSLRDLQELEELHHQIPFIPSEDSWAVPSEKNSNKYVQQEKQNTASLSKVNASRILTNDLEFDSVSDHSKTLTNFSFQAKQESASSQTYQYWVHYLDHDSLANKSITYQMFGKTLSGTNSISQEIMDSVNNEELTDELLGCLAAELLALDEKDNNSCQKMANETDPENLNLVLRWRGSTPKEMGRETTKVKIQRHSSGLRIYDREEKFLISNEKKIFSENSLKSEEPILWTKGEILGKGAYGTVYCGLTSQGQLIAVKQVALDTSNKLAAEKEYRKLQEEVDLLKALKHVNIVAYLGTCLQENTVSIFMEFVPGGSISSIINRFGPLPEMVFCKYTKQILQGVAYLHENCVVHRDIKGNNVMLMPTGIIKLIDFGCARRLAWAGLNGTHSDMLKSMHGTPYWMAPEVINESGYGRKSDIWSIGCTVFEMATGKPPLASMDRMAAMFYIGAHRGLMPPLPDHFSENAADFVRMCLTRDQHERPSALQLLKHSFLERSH", "test": "Binding affinity to partial length wild-type human YSK4 (T1019 to H1328 residues) expressed in bacterial expression system assessed as unbound drug level at 300 nM by KINOMEscan assay"}, "[4]": {"species_on_record": "Homo sapiens", "test": "Inhibition of PKA (unknown origin) at 1 uM using PKA peptide as substrate preincubated for 5 mins followed by substrate addition measured after 10 mins in presence of [gamma33P]ATP by scintillation counter method relative to control"}, "[5]": {"target": "Interleukin-1 receptor-associated kinase 1 (Homo sapiens) (UniProt P51617)", "test": "Binding affinity to partial length wild-type human […] (R194 to S712 residues) expressed in mammalian expression system assessed as unbound drug level at 300 nM by KINOMEscan assay"}, "[6]": {"target": "Mitogen-activated protein kinase 14 (Homo sapiens) (UniProt Q16539)", "sequence (Q16539 whole entry)": "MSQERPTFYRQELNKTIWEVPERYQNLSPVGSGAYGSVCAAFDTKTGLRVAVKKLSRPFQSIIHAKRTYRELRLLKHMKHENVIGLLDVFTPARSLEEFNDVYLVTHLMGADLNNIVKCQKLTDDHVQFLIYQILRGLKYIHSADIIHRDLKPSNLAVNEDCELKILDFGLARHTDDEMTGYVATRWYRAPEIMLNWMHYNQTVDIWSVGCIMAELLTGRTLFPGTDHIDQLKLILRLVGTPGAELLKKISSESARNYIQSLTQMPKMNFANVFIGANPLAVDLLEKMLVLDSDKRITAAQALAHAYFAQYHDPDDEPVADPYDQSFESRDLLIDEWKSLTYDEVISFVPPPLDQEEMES", "test": "Inhibition of p38alpha (unknown origin) at <1 uM using MBP as substrate preincubated for 5 mins followed by substrate addition measured after 60 mins in presence of [gamma32P]ATP by scintillation counter method"}, "[7]": {"test": "Cmax in ICR mouse plasma at 1 mg/kg, po administered as cassette dose by LC-MS/MS analysis", "format": "ADME, organism-based", "set-up": "dose 1 mg/kg, route oral"}, "[8]": {"test": "AUC (0 to 24 hrs) in ICR mouse plasma at 1 mg/kg, po administered as cassette dose by LC-MS/MS analysis", "format": "ADME, organism-based", "set-up": "dose 1 mg/kg, time < 24 hr, route oral"}, "[9]": {"system": "Mus musculus", "test": "AUC (0 to 24 hrs) in ICR mouse plasma at 0.1 mg/kg, iv administered as cassette dose by LC-MS/MS analysis", "format": "ADME, organism-based", "set-up": "dose 0.1 mg/kg, time < 24 hr, route intravenous", "settings": "in vivo"}, "[10]": {"target": "Glycogen synthase kinase-3 beta (Homo sapiens) (UniProt P49841)", "test": "Inhibition of GSK3beta (unknown origin) at 1 uM using GSK3 substrate peptide preincubated for 5 mins followed by substrate addition measured after 30 mins in presence of [gamma33P]ATP by scintillation counter method relative to control"}, "[11]": {"target": "Aurora kinase B (Homo sapiens) (UniProt Q96GD4)", "test": "Inhibition of Aurora B (unknown origin) at <1 uM using aurora peptide as substrate preincubated for 5 mins followed by substrate addition measured after 60 mins in presence of [gamma33P]ATP by scintillation counter method"}, "[12]": {"system": "Mus musculus", "test": "Toxicity in C.B17/Icr scid/scid Jcl mouse assessed as body weight loss at 2.5 mg/kg, po qd administered for 14 days measured post last dose", "format": "organism-based", "settings": "in vivo, 336 h"}, "[13]": {"test": "Half life in ICR mouse plasma at 0.1 mg/kg, iv or 1 mg/kg, po administered as cassette dose by LC-MS/MS analysis", "format": "ADME, organism-based"}, "[14]": {"target": "CDK2/Cyclin A2 (Homo sapiens) (UniProt P24941+P20248)", "test": "Inhibition of CDK2/cyclin A (unknown origin) at 1 uM using histone H1 as substrate preincubated for 5 mins followed by substrate addition measured after 20 mins in presence of [gamma33P]ATP by scintillation counter method relative to control", "format": "protein-complex assay"}, "[15]": {"system": "RPMI-8226", "test": "Antitumor activity against human RPMI8226 cells xenografted in C.B17/Icr scid/scid Jcl mouse assessed as tumor growth suppression at 1.25 mg/kg, po bid administered for 14 days measured post last dose relative to control", "format": "functional"}, "[16]": {"target": "Hepatocyte growth factor receptor (Homo sapiens) (UniProt P08581)", "sequence (P08581 whole entry)": "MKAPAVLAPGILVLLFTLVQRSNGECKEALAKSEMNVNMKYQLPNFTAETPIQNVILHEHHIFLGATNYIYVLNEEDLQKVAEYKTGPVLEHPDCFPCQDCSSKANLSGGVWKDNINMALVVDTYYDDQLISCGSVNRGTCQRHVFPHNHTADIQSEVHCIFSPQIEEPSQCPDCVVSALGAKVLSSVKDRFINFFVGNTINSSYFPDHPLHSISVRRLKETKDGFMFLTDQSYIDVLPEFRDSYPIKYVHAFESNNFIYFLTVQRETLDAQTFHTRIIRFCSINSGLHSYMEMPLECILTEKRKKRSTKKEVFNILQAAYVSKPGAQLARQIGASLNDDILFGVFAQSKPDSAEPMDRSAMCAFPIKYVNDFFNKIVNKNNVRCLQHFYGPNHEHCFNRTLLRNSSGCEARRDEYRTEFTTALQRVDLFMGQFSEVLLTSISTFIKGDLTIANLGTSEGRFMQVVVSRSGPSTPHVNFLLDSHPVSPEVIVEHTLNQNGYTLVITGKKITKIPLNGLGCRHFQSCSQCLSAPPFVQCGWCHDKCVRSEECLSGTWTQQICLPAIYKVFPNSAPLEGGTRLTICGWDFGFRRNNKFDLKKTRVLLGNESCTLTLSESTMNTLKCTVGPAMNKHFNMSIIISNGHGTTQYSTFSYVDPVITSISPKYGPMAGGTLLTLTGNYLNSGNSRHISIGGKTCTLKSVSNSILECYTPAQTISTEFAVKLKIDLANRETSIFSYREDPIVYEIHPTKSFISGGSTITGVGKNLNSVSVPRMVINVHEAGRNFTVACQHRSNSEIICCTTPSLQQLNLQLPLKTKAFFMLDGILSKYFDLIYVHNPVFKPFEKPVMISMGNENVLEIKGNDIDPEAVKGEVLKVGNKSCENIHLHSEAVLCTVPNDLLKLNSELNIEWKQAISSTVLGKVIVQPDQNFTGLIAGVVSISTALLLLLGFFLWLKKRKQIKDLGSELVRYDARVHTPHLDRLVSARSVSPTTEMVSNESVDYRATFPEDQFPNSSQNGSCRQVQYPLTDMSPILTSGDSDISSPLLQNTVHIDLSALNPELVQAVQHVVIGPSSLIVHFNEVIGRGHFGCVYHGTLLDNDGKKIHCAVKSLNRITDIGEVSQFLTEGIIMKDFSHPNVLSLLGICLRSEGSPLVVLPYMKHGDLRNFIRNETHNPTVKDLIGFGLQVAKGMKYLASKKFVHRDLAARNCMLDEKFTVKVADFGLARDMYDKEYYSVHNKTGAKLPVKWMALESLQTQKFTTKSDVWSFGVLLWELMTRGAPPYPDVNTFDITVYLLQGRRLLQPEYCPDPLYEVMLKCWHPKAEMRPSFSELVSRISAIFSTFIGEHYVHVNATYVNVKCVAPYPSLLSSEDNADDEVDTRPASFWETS", "test": "Inhibition of cMET (unknown origin) at <1 uM"}, "[17]": {"target": "Cyclin-C/Cyclin-dependent kinase 19 (Homo sapiens) (UniProt Q9BWU1+P24863)", "settings": "1 uM", "description": "Inhibition of kinase tracer-236 binding to GST-tagged CDK19/CyclinC (unknown origin) at 1 uM after 60 mins by TR-FRET assay relative to control"}, "[18]": {"test": "Volume of distribution at steady state in ICR mouse plasma at 0.1 mg/kg, iv administered as cassette dose by LC-MS/MS analysis", "format": "ADME, organism-based", "settings": "read-out: Vdss"}, "[19]": {"target": "T1, Homeodomain-interacting protein kinase 1 (Homo sapiens, UniProt Q86Z02)", "test": "Binding affinity to partial length human HIPK1 (M146 to I555 residues) expressed in mammalian expression system by kinome scan assay"}, "[20]": {"system": "MV4-11", "test": "Growth inhibition of human MV411 cells after 196 hrs by CellTiter-Glo luminescence assay", "format": "functional", "settings": "MV4-11, 196 h"}, "[21]": {"system": "SW480", "test": "Growth inhibition of human SW480 cells after 196 hrs by CellTiter-Glo luminescence assay relative to control", "format": "functional"}, "[22]": {"system": "Mus musculus", "test": "In vivo inhibition of CDK8-mediated STAT1 phosphorylation in human RPMI8226 cells xenografted in C.B17/Icr scid/scid Jcl mouse at 2.5 mg/kg, po bid administered for 14 days measured 2 to 8 hrs post last dose", "format": "functional, organism-based"}, "[23]": {"target": "T1, Homeodomain-interacting protein kinase 1", "settings": "300 nM"}, "[24]": {"target": "Proto-oncogene tyrosine-protein kinase Src (Homo sapiens) (UniProt P12931)", "sequence (P12931 2-536 limits assumed)": "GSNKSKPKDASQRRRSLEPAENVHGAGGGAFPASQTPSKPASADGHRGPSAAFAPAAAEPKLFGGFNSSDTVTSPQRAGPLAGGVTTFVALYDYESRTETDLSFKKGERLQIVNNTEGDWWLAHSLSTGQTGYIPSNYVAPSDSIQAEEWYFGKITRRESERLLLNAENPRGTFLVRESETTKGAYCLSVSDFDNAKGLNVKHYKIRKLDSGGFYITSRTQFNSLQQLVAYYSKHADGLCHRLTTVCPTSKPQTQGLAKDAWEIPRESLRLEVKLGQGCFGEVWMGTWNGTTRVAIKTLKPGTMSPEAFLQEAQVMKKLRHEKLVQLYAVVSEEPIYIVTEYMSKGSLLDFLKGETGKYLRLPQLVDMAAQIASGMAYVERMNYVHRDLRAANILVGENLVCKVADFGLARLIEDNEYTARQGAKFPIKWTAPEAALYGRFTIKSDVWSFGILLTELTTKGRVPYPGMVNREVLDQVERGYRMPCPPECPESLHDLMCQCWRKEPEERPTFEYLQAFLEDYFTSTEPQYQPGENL", "test": "Inhibition of SRC (unknown origin) at <1 uM using biotinylated poly[Glu:Tyr] (4:1) as substrate pretreated for 5 mins followed by substrate addition measured after 10 mins by Alphascreen assay"}, "[25]": {"target": "Serine/threonine-protein kinase Chk1 (Homo sapiens) (UniProt O14757)", "test": "Inhibition of CHK1 (unknown origin) at <1 uM using CHKtide as substrate preincubated for 5 mins followed by substrate addition measured after 10 mins in presence of [gamma33P]ATP by scintillation counter method"}, "[26]": {"target": "Serine/threonine-protein kinase PLK1 (Homo sapiens) (UniProt P53350)", "test": "Inhibition of PLK1 (unknown origin) at 1 uM using alpha-casein as substrate preincubated for 5 mins followed by substrate addition measured after 60 mins in presence of [gamma33P]ATP by scintillation counter method relative to control"}, "[27]": {"target": "Phosphatidylinositol 4,5-bisphosphate 3-kinase catalytic subunit alpha isoform (Homo sapiens) (UniProt P42336)", "sequence (P42336 whole entry, canonical isoform)": "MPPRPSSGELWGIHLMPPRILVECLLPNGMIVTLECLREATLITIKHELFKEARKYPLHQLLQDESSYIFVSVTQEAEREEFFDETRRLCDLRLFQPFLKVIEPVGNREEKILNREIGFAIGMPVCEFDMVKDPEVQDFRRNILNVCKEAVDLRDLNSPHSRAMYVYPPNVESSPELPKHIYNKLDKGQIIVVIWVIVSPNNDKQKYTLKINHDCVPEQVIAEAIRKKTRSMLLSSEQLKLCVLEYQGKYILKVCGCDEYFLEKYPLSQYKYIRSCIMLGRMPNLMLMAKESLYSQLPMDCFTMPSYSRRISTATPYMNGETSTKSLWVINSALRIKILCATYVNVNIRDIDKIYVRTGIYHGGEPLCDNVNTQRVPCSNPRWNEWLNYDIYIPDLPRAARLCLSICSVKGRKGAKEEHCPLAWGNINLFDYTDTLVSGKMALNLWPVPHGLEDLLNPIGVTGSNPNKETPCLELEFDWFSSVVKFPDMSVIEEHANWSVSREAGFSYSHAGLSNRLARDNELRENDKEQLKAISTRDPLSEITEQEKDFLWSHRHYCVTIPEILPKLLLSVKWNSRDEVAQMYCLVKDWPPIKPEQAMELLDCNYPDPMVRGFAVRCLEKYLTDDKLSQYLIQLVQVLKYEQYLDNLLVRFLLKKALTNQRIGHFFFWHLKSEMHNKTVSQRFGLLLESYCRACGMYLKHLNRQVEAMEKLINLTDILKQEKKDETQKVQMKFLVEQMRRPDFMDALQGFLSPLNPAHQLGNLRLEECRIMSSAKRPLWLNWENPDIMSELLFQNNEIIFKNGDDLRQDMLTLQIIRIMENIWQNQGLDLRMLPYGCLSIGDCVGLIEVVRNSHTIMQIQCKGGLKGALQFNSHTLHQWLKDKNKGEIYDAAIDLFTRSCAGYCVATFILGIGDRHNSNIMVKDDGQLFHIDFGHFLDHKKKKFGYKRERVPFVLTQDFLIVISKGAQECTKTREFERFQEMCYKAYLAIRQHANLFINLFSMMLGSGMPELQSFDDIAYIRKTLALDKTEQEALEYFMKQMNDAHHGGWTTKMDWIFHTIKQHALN", "test": "Inhibition of PI3Kalpha (unknown origin) at <1 uM"}, "[28]": {"target": "Cyclin-dependent kinase 19 (Homo sapiens, UniProt Q9BWU1)", "settings": "300 nM"}, "[29]": {"system": "RPMI-8226", "test": "Antitumor activity against human RPMI8226 cells xenografted in C.B17/Icr scid/scid Jcl mouse assessed as tumor growth suppression at 2.5 mg/kg, po qd administered for 14 days measured post last dose relative to control", "format": "functional"}, "[30]": {"target": "Focal adhesion kinase 1 (Homo sapiens) (UniProt Q05397)", "test": "Inhibition of FAK (unknown origin) at <1 uM using biotinylated poly[Glu:Tyr] (4:1) as substrate pretreated for 5 mins followed by substrate addition measured after 20 mins by Alphascreen assay"}, "[31]": {"test": "Mean residence time in ICR mouse plasma at 1 mg/kg, po administered as cassette dose by LC-MS/MS analysis", "format": "ADME, organism-based"}},
  "note": "Active and inactive are the calls of the source. The calls are words filed in the database; no cut-off is given here.",
  "data": [
    {"smiles": "COCCNC(=O)c1ccc(Oc2sc(C(N)=O)c3c2-c2sncc2CC3)cn1", "values": [
      {"measurement": "GI50", "setting": "[1]", "result": 0.43, "unit": "nM"},
      {"measurement": "inhibition", "setting": "[2]", "result": "inactive"},
      {"measurement": "Fu", "setting": "[3]", "result": 0.41, "unit": "%"},
      {"measurement": "inhibition", "setting": "[4]", "result": 1, "unit": "%"},
      {"measurement": "Fu", "setting": "[5]", "result": 0.49, "unit": "%"},
      {"measurement": "inhibition", "setting": "[6]", "result": "inactive"},
      {"measurement": "Cmax", "setting": "[7]", "result": 362, "unit": "ng/mL"},
      {"measurement": "AUC(0-t) at 24 h", "setting": "[8]", "result": 891, "unit": "ng·h/mL"},
      {"measurement": "AUC", "setting": "[9]", "result": 90.4, "unit": "ng·h/mL"},
      {"measurement": "inhibition", "setting": "[10]", "result": 31, "unit": "%"},
      {"measurement": "inhibition", "setting": "[11]", "result": "inactive"},
      {"measurement": "Activity", "setting": "[12]", "result": 10.2, "unit": "%"},
      {"measurement": "half-life", "setting": "[13]", "result": 2.1, "unit": "h"},
      {"measurement": "inhibition", "setting": "[14]", "result": 62, "unit": "%"},
      {"measurement": "T/C", "setting": "[15]", "result": 27, "unit": "%"},
      {"measurement": "inhibition", "setting": "[16]", "result": "inactive"},
      {"measurement": "inhibition", "setting": "[17]", "result": 100, "unit": "%"},
      {"measurement": "Vd", "setting": "[18]", "result": 2.14, "unit": "L/kg"},
      {"measurement": "Kd", "setting": "[19]", "result": 160, "unit": "nM"},
      {"measurement": "GI50", "setting": "[20]", "result": 1.6, "unit": "nM"},
      {"measurement": "growth inhibition (GI)", "setting": "[21]", "result": ">50", "unit": "%"},
      {"measurement": "inhibition", "setting": "[22]", "result": "Active"},
      {"measurement": "Fu", "setting": "[23]", "result": 0.32, "unit": "%"},
      {"measurement": "inhibition", "setting": "[24]", "result": "inactive"},
      {"measurement": "inhibition", "setting": "[25]", "result": "inactive"},
      {"measurement": "inhibition", "setting": "[26]", "result": 4, "unit": "%"},
      {"measurement": "inhibition", "setting": "[27]", "result": "inactive"},
      {"measurement": "Fu", "setting": "[28]", "result": 0.046, "unit": "%"},
      {"measurement": "T/C", "setting": "[29]", "result": -1, "unit": "%"},
      {"measurement": "inhibition", "setting": "[30]", "result": "inactive"},
      {"measurement": "MRT", "setting": "[31]", "result": 2.06, "unit": "h"}
    ]}
  ]
}
